System: primary HSCs

`Cc1sc2c(c1C)C(c1ccc(Cl)cc1)=N[C@@H](CC(=O)OC(C)(C)C)c1nnc(C)n1-2` [JQ1, (S)-tert-butyl 2-(4-(4-chlorophenyl)-2,3,9-trimethyl-6H-thieno[3,2-f][1,2,4]triazolo[4,3-a][1,4]diazepin-6-yl)acetate] was tested, and the “Stk39 value_2” value (Day_6_JQ1) was 17.0092, the “Sulf1 value_2” value (Day_6_JQ1) was 53.8118 and the “Tbxa2r value_2” value (Day_6_JQ1) was 1.603. The “Tcea3 value_2” value (Day_6_JQ1) was 1.947, the “Tead3 value_2” value (Day_6_JQ1) was 19.5802 and the “Thbs3 value_2” value (Day_6_JQ1) was 1.4249. The “Timp1 value_2” value (Day_6_JQ1) was 296.521, the “Tlcd2 value_2” value (Day_6_JQ1) was 7.717 and the “Tm7sf3 value_2” value (Day_6_JQ1) was 17.8846. For the same compound, the “Tmem14a value_2” value (Day_6_JQ1) was 2.145, the “Tmem38a value_2” value (Day_6_JQ1) was 9.934 and the “Tmem45a value_2” value (Day_6_JQ1) was 21.4757. The “Tmem119 value_2” value (Day_6_JQ1) was 38.7358, the “Tpm1 value_2” value (Day_6_JQ1) was 1441.58 and the “Trf value_2” value (Day_6_JQ1) was 73.4499. The “Trim46 value_2” value (Day_6_JQ1) was 1.758, the “Trnp1 value_2” value (Day_6_JQ1) was 13.5695 and the “Tsku value_2” value (Day_6_JQ1) was 19.2147. For the same compound, the “Tspan2 value_2” value (Day_6_JQ1) was 2.762, the “Tspan6 value_2” value (Day_6_JQ1) was 21.2613 and the “Ttc13 value_2” value (Day_6_JQ1) was 20.1057. For the same compound, the “Tubb2b value_2” value (Day_6_JQ1) was 18.8633, the “Tubb4 value_2” value (Day_6_JQ1) was 12.0841 and the “Txndc5 value_2” value (Day_6_JQ1) was 194.663. For the same compound, the “Ube2c value_2” value (Day_6_JQ1) was 30.6226, the “Unc119 value_2” value (Day_6_JQ1) was 15.3231 and the “Vash2 value_2” value (Day_6_JQ1) was 1.343. For the same compound, the “Vegfa value_2” value (Day_6_JQ1) was 27.576, the “Wee1 value_2” value (Day_6_JQ1) was 8.031 and the “Wfs1 value_2” value (Day_6_JQ1) was 22.9762. For the same compound, the “Whrn value_2” value (Day_6_JQ1) was 4.993, the “Wnt4 value_2” value (Day_6_JQ1) was 18.5297 and the “Wnt5a value_2” value (Day_6_JQ1) was 7.524. The “Wnt9a value_2” value (Day_6_JQ1) was 7.671, the “Ydjc value_2” value (Day_6_JQ1) was 1.905 and the “Zbtb8b value_2” value (Day_6_JQ1) was 2.023. For the same compound, the “Zyx value_2” value (Day_6_JQ1) was 185.005, the “1190002N15Rik value_2” value (gene 1190002N15Rik, mRNA-Seq, sample Day_6_JQ1) was 132.567 and the “Aard value_2” value (gene Aard, mRNA-Seq, sample Day_6_JQ1) was 83.973. For the same compound, the “Abat value_2” value (gene Abat, mRNA-Seq, sample Day_6_JQ1) was 35.0761, the “Adamts5 value_2” value (gene Adamts5, mRNA-Seq, sample Day_6_JQ1) was 91.9646 and the “Aldh1a1 value_2” value (gene Aldh1a1, mRNA-Seq, sample Day_6_JQ1) was 311.654. For the same compound, the “Arxes2 value_2” value (gene Arxes2, mRNA-Seq, sample Day_6_JQ1) was 27.1896, the “Asf1b value_2” value (gene Asf1b, mRNA-Seq, sample Day_6_JQ1) was 22.9334 and the “Atoh8 value_2” value (gene Atoh8, mRNA-Seq, sample Day_6_JQ1) was 73.1716. For the same compound, the “Barx1 value_2” value (gene Barx1, mRNA-Seq, sample Day_6_JQ1) was 11.4288, the “Bcmo1 value_2” value (gene Bcmo1, mRNA-Seq, sample Day_6_JQ1) was 159.902 and the “Birc5 value_2” value (gene Birc5, mRNA-Seq, sample Day_6_JQ1) was 50.4974. The “Bub1 value_2” value (gene Bub1, mRNA-Seq, sample Day_6_JQ1) was 8.993, the “Casc4 value_2” value (gene Casc4, mRNA-Seq, sample Day_6_JQ1) was 36.8307 and the “Cd248 value_2” value (gene Cd248, mRNA-Seq, sample Day_6_JQ1) was 118.878. The “Cdca5 value_2” value (gene Cdca5, mRNA-Seq, sample Day_6_JQ1) was 10.0872, the “Cdon value_2” value (gene Cdon, mRNA-Seq, sample Day_6_JQ1) was 16.8708 and the “Cep55 value_2” value (gene Cep55, mRNA-Seq, sample Day_6_JQ1) was 13.1668. The “Ckap2 value_2” value (gene Ckap2, mRNA-Seq, sample Day_6_JQ1) was 33.1117, the “Clca1 value_2” value (gene Clca1, mRNA-Seq, sample Day_6_JQ1) was 52.2679 and the “Col14a1 value_2” value (gene Col14a1, mRNA-Seq, sample Day_6_JQ1) was 181.433. The “Ddr1 value_2” value (gene Ddr1, mRNA-Seq, sample Day_6_JQ1) was 106.289, the “Dzip1 value_2” value (gene Dzip1, mRNA-Seq, sample Day_6_JQ1) was 31.5814 and the “Efemp1 value_2” value (gene Efemp1, mRNA-Seq, sample Day_6_JQ1) was 205.387. For the same compound, the “Egr1 value_2” value (gene Egr1, mRNA-Seq, sample Day_6_JQ1) was 141.166, the “Emilin2 value_2” value (gene Emilin2, mRNA-Seq, sample Day_6_JQ1) was 88.1199 and the “Epha7 value_2” value (gene Epha7, mRNA-Seq, sample Day_6_JQ1) was 11.3808. For the same compound, the “Fam117a value_2” value (gene Fam117a, mRNA-Seq, sample Day_6_JQ1) was 15.5563, the “Fam123b value_2” value (gene Fam123b, mRNA-Seq, sample Day_6_JQ1) was 9.43 and the “Fam83d value_2” value (gene Fam83d, mRNA-Seq, sample Day_6_JQ1) was 24.1741. For the same compound, the “Fbln1 value_2” value (gene Fbln1, mRNA-Seq, sample Day_6_JQ1) was 13.4635, the “Fbln5 value_2” value (gene Fbln5, mRNA-Seq, sample Day_6_JQ1) was 79.5082 and the “Fgfr2 value_2” value (gene Fgfr2, mRNA-Seq, sample Day_6_JQ1) was 86.0077. The “Fhl1 value_2” value (gene Fhl1, mRNA-Seq, sample Day_6_JQ1) was 503.063, the “Figf value_2” value (gene Figf, mRNA-Seq, sample Day_6_JQ1) was 27.0541 and the “Gamt value_2” value (gene Gamt, mRNA-Seq, sample Day_6_JQ1) was 12.8445. For the same compound, the “Gdf11 value_2” value (gene Gdf11, mRNA-Seq, sample Day_6_JQ1) was 22.9531, the “Ghr value_2” value (gene Ghr, mRNA-Seq, sample Day_6_JQ1) was 60.5749 and the “H1fx value_2” value (gene H1fx, mRNA-Seq, sample Day_6_JQ1) was 50.515. The “H2afx value_2” value (gene H2afx, mRNA-Seq, sample Day_6_JQ1) was 155.278, the “H19 value_2” value (gene H19, mRNA-Seq, sample Day_6_JQ1) was 82.2113 and the “Hist1h1c value_2” value (gene Hist1h1c, mRNA-Seq, sample Day_6_JQ1) was 246.293. The “Hmcn1 value_2” value (gene Hmcn1, mRNA-Seq, sample Day_6_JQ1) was 13.3966, the “Hmgn3 value_2” value (gene Hmgn3, mRNA-Seq, sample Day_6_JQ1) was 59.5606 and the “Hspa2 value_2” value (gene Hspa2, mRNA-Seq, sample Day_6_JQ1) was 19.5751. The “Igf2r value_2” value (gene Igf2r, mRNA-Seq, sample Day_6_JQ1) was 67.7147, the “Igfbp6 value_2” value (gene Igfbp6, mRNA-Seq, sample Day_6_JQ1) was 52.4488 and the “Isyna1 value_2” value (gene Isyna1, mRNA-Seq, sample Day_6_JQ1) was 113.425. The “Itga1 value_2” value (gene Itga1, mRNA-Seq, sample Day_6_JQ1) was 101.182, the “Itm2a value_2” value (gene Itm2a, mRNA-Seq, sample Day_6_JQ1) was 59.8717 and the “Kif23 value_2” value (gene Kif23, mRNA-Seq, sample Day_6_JQ1) was 11.9374. For the same compound, the “Kifc1 value_2” value (gene Kifc1, mRNA-Seq, sample Day_6_JQ1) was 15.9311, the “Klhl13 value_2” value (gene Klhl13, mRNA-Seq, sample Day_6_JQ1) was 100 and the “Lama1 value_2” value (gene Lama1, mRNA-Seq, sample Day_6_JQ1) was 16.8277. The “Lum value_2” value (gene Lum, mRNA-Seq, sample Day_6_JQ1) was 485.984, the “Mad2l1 value_2” value (gene Mad2l1, mRNA-Seq, sample Day_6_JQ1) was 31.9743 and the “Mapk8ip1 value_2” value (gene Mapk8ip1, mRNA-Seq, sample Day_6_JQ1) was 16.3375. For the same compound, the “Meis1 value_2” value (gene Meis1, mRNA-Seq, sample Day_6_JQ1) was 24.7836, the “Mmp17 value_2” value (gene Mmp17, mRNA-Seq, sample Day_6_JQ1) was 25.3895 and the “Mxd4 value_2” value (gene Mxd4, mRNA-Seq, sample Day_6_JQ1) was 76.146. The “Ncapd2 value_2” value (gene Ncapd2, mRNA-Seq, sample Day_6_JQ1) was 18.5667, the “Ncapg2 value_2” value (gene Ncapg2, mRNA-Seq, sample Day_6_JQ1) was 11.6063 and the “Ncaph value_2” value (gene Ncaph, mRNA-Seq, sample Day_6_JQ1) was 16.1078. For the same compound, the “Nek2 value_2” value (gene Nek2, mRNA-Seq, sample Day_6_JQ1) was 11.522, the “Nusap1 value_2” value (gene Nusap1, mRNA-Seq, sample Day_6_JQ1) was 10.0613 and the “Pcsk6 value_2” value (gene Pcsk6, mRNA-Seq, sample Day_6_JQ1) was 16.0741. For the same compound, the “Pcyox1 value_2” value (gene Pcyox1, mRNA-Seq, sample Day_6_JQ1) was 135.704, the “Peg3 value_2” value (gene Peg3, mRNA-Seq, sample Day_6_JQ1) was 37.0421 and the “Peg10 value_2” value (gene Peg10, mRNA-Seq, sample Day_6_JQ1) was 121.813. The “Pkia value_2” value (gene Pkia, mRNA-Seq, sample Day_6_JQ1) was 28.0014.

From patent US20180325914A1, “INCREASING STORAGE OF VITAMIN A, VITAMIN D AND/OR LIPIDS” (Salk Institute for Biological Studies, priority 2014, published 2018)
